# Where a chain is given by its changes, count along the chain named. Numbers in names are those of the source.
# B1: ATP:cob(I)alamin adenosyltransferase p.I96T mutant, human, without the mitochondrial targeting sequence (enzyme, UniProt Q96EY8 33-250, looked up)
# chain: QSRGPQGVEDGDRPQPSSKTPRIPKIYTKTGDKGFSSTFTGERRPKDDQVFEAVGTTDELSSATGFALELVTEKGHTFAEELQKIQCTLQDVGSALATPCSSAREAHLKYTTFKAGPILELEQWIDKYTSQLPPLTAFILPSGGKISSALHFCRAVCRRAERRVVPLVQMGETDANVAKFLNRLSDYLFTLARYAAMKEGNQEKIYMKNDPSAESEGL
# Tests used:
# [1] = target: T1, human ATR (ATP:cob(I)alamin adenosyltransferase; hATR) (Homo sapiens, UniProt Q96EY8, I96T); assay: intrinsic fluorescence titration; type: binding; settings: read-out: p.I96T; 50 mM Tris-HCl pH 8.0
# T1 sequence (Q96EY8 33-250 I96T): B1 chain
# [2] = target: T2, human ATR (ATP:cob(I)alamin adenosyltransferase; hATR) (Homo sapiens, UniProt Q96EY8); assay: intrinsic fluorescence titration; type: binding; settings: read-out: wild-type; 50 mM Tris-HCl pH 8.0
# T2 sequence (Q96EY8 33-250): B1 chain with T64I
# SEC = target: the molecule itself; assay: SEC
Molecule,Kd [1],Kd [2],stoichiometry N (SEC)
CNCbl,13.3 ± 0.3 µM,7.8 ± 0.5 µM,–
B1,–,–,3

# Reference: PMC2932867 (Human mutation, 2010)
